Test results: PMC12590467, “Accessory Subunit Regulates Thiyl Radical Formation in Benzylsuccinate Synthase” (Biochemistry, 2025)

Target: T1, BSSαβγ (benzylsuccinate synthase) (Thauera aromatica, UniProt O68395)
T1 construct: gene tutD; BSSαγ mixed 1:2 with BSSβ; (αβγ)2; α 865, β 81, γ 60 residues; resolved α 9-865, β 13-81, γ 5-59; catalytic Cys493; with Benzylsuccinate synthase beta subunit; Benzylsuccinate synthase gamma subunit
Test: X-ray crystal structure, […] Å
Assay type: binding
Details: active site; toluene not added, modelled from glovebox atmosphere; also turned over with fumarate; pH 8.5

T1 sequence (O68395 1-864): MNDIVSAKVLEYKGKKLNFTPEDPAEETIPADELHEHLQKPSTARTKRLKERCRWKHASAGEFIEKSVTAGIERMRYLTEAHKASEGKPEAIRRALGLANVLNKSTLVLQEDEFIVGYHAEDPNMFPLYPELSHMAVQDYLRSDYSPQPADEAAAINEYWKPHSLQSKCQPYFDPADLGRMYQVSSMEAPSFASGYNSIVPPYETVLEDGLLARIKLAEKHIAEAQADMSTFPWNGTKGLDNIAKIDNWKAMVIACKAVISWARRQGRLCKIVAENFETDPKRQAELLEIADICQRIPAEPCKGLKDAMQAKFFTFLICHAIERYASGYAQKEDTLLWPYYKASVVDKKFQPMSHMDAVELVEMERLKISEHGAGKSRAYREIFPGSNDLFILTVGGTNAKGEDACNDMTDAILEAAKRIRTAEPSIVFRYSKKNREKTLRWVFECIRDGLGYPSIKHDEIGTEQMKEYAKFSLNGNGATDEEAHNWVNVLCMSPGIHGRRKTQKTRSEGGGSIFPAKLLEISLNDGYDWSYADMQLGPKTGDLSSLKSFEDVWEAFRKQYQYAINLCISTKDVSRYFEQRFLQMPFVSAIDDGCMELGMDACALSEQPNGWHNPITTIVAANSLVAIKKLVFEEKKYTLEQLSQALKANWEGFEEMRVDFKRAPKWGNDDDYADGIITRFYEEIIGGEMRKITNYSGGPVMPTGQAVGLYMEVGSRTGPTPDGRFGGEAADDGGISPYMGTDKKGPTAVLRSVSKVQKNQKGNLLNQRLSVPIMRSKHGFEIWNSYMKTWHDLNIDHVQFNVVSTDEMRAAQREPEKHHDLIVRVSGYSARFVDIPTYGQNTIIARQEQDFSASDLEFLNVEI
T1 sequence (O68396 1-81 partner): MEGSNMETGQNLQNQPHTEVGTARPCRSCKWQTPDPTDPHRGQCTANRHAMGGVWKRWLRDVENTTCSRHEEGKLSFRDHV
T1 sequence (O68394 1-60 partner): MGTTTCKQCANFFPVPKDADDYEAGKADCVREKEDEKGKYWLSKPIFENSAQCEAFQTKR

Cc1ccccc1 [toluene]
X-ray crystal structure, 2.9 Å: In the active site, both toluene and fumarate were modeled and align well
